Tests used:
Experiment in all cases: relative viability (nuclei count vs DMSO), 5 days (fraction); higher = more cells survive
Kobe2602 + Tozasertib = compound: C1=CC(=CC=C1NC(=S)NNC2=C(C=C(C=C2[N+](=O)[O-])C(F)(F)F)[N+](=O)[O-])F [Kobe2602] + Cc1cc(Nc2cc(N3CCN(C)CC3)nc(Sc3ccc(NC(=O)C4CC4)cc3)n2)n[nH]1 [Tozasertib] (partner 0.1 µM)
Summary of the method: (§1)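 Values are medians from duplicate plates. Each reflects relative viability, defined as the nuclei count of treated wells over that of vehicle wells. Lung cancer cell lines in 1536-well plates were pin-tool dosed one day after seeding with one drug alone or with a fixed anchor-drug dose plus five library-drug doses (not always all listed) in √10 steps, then fixed, stained and imaged at 4× after 5 days.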

Kobe2602 + Olaparib = compound: C1=CC(=CC=C1NC(=S)NNC2=C(C=C(C=C2[N+](=O)[O-])C(F)(F)F)[N+](=O)[O-])F [Kobe2602] + O=C(c1cc(Cc2n[nH]c(=O)c3ccccc23)ccc1F)N1CCN(C(=O)C2CC2)CC1 [Olaparib] (partner 8 µM)
Summary of the method: as §1

[1] = compound: COc1cc2nccc(Oc3ccc(NC(=O)C4(C(=O)Nc5ccc(F)cc5)CC4)cc3)c2cc1OC [Cabozantinib] + N=C(N)NC(=N)NCCc1ccccc1 [Phenformin] (partner 250 µM)
Summary of the method: as §1

[2] = compound: COc1cc2nccc(Oc3ccc(NC(=O)C4(C(=O)Nc5ccc(F)cc5)CC4)cc3)c2cc1OC [Cabozantinib] + C[C@]1(O)C[C@@H](c2nc(-c3ccc4ccc(-c5ccccc5)nc4c3)c3c(N)nccn32)C1 [Linsitinib] (partner 1 µM)
Summary of the method: as §1

Cell Line	relative viability (Kobe2602 + Tozasertib; first compound 0.2 µM)	relative viability (Kobe2602 + Tozasertib; first compound 0.6325 µM)	relative viability (Kobe2602 + Tozasertib; first compound 2 µM)	relative viability (Kobe2602 + Tozasertib; first compound 6.325 µM)	relative viability (Kobe2602 + Tozasertib; first compound 20 µM)	relative viability (Kobe2602 + Olaparib; first compound 0.2 µM)	relative viability (Kobe2602 + Olaparib; first compound 0.6325 µM)	relative viability (Kobe2602 + Olaparib; first compound 2 µM)	relative viability (Kobe2602 + Olaparib; first compound 6.325 µM)	relative viability (Kobe2602 + Olaparib; first compound 20 µM)	relative viability ([1]; first compound 0.02 µM)	relative viability ([1]; first compound 0.06325 µM)	relative viability ([1]; first compound 0.2 µM)	relative viability ([1]; first compound 0.6325 µM)	relative viability ([1]; first compound 2 µM)	relative viability ([2]; first compound 0.02 µM)	relative viability ([2]; first compound 0.06325 µM)	relative viability ([2]; first compound 0.2 µM)	relative viability ([2]; first compound 0.6325 µM)	relative viability ([2]; first compound 2 µM)
NCI-H1648	0.465	0.43	0.468	0.513	0.393	0.62	0.929	0.493	0.772	0.872										
NCI-H1623	0.42	0.433	0.396	0.439	0.412						0.545	0.667	0.526	0.519	0.585					
NCI-H460	0.342	0.402	0.411	0.154	0.0739	0.427	0.416	0.455	0.423	0.43	0.535	0.563	0.576	0.512	0.508	0.941	0.89	0.83	0.805	0.797
NCI-H3122	0.451	0.381	0.399	0.393	0.403	0.551	0.602	0.621	0.56	0.619	0.45	0.423	0.374	0.333	0.324	1.01	1.03	1.08	0.949	1
HCC-44	0.906	0.838	0.92	0.861	0.687	0.965	0.983	0.955	0.951	0.898	0.102	0.273	0.275	0.224	0.224	0.807	0.795	0.726	0.64	0.573
HCC-78	0.428	0.413	0.369	0.314	0.525	0.852	0.809	0.904	0.591	0.907		0.733	0.335	0.383	0.383	0.428	0.423	0.194	0.261	0.193
COR-L23	0.177	0.172	0.165	0.157	0.154	0.316	0.394	0.351	0.361	0.326	0.433	0.438	0.413	0.443	0.408	1.03	1.27	0.866	0.954	0.863
NCI-H2009	0.713	0.801	0.619	0.715	0.7	0.685	0.701	0.735	0.714	0.736	0.532	0.549	0.547	0.518	0.459	1.23	1.17	1.18	1.19	1.23
NCI-H322M	0.518	0.534	0.493	0.538	0.533	0.737	0.752	0.776	0.875	0.828	0.779	0.922	0.589	0.803	0.816	0.95	1		0.96	0.954
